The values that follow are results of earlier work, collected in patent US7553863B2, “Ultrapure 4-methylpyrazole” (Paladin Labs (Barbados) Inc., priority 2005, dated 2009).

For series [1] the following is noted: H. Kohno et al., Cancer Sci. 2005.
Series [2] concerns alcohol dehydrogenase. The note with it: relative to 4-methylpyrazole; T. Li et al., Acta Chem. Scan. 1969.
The conditions of series [3]: Eisses, 1995.
Series [4] concerns brain levels of noradrenaline. The following applies: in contrast to 4-methylpyrazole; E. MacDonald, Acta Pharmacol. et Toxicol. 1976.

As for `NN` [Hydrazine], in series [1], the mutagenicity and carcinogenicity entry was “known mutagens and carcinogens”.

With `c1cn[nH]c1` [Pyrazole], the “fold less potency against alcohol dehydrogenase” value in series [2] is reported as 10 fold. For the same compound, in series [3], the teratogenicity result was “known teratogen”. Besides, the “effect on brain levels of noradrenaline” value in series [4] was “detrimental effect”.
